Measurements published in US6752929B1, “Methods of separating FTC isomers and derivatives thereof” (Johnson Matthey Pharmaceutical Materials, Inc., priority 1999, dated 2004).

Assay: Solubility of cis-FTC Ester in various solvent systems
Assay type: physicochemical
Conditions: 100% ethyl acetate, 20° C.
Experimental: Therefore, the solubility of the FTC ester in several solvent systems was determined.

## CCCC(=O)OC[C@@H]1O[C@H](n2cc(F)c(N)nc2=O)CS1 (relative stereo) [cis-FTC Ester, cis-{5-(4-amino-5-fluoro-2-oxo-1(2H)-pyrimidinyl)-1,3-oxathiolan-2-yl}methyl butanoate]
  Solubility: 3.03%??
